Laboratory results reported in US6410561B1, “Amide derivatives and nociceptin antagonists” (Japan Tobacco Inc., priority 1998, dated 2002).
Read-outs that look alike come from different tables or passages of the source.

Key:
μ receptor = molecular target: T1, μ receptor (Rattus norvegicus, UniProt P33535); test: μ receptor binding assay ([3H]DAMGO); conditions: for Ki: calculated from IC50 and Kd of [3H]DAMGO; for IC50: rat cerebrum membrane, [3H]DAMGO 1 nM
T1 construct: Rat cerebrum membrane standard sample; from tissue; host or cells: rat cerebrum membranes
T1 sequence (P33535 whole entry): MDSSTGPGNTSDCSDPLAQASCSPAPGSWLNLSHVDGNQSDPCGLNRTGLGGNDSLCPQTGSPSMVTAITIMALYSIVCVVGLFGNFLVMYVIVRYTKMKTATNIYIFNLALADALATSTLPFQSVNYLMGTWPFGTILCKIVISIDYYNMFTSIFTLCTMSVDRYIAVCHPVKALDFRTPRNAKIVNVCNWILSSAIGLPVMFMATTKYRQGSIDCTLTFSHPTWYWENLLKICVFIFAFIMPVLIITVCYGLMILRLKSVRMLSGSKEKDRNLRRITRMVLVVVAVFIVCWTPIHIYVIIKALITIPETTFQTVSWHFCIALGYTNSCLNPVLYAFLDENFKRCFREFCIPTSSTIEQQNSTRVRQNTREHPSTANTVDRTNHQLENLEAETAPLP
Description: Rat cerebrum membrane standard sample (final concentration 0.755 mg·protein/ml), [^3H]DAMGO (Try-D-Ala-Gly-NMe-Phe-Gly-ol) [diluted with Tris buffer (50 mM Tris-HCl, 0.1 mM p-APMSF, 2 mg/ml BSA (pH=7.4)) to a final concentration of 1 nM] and test compound (diluted with Tris buffer to a final concentration of 10 nM-10 μM) were mixed, and the mixture was incubated at room temperature for 90 min. The membrane was recovered on a G/F-B filter (same as above) using a cell harvester and the reaction was stopped. After washing 3 times, the filter was dried at 42° C. for 1 hr. A scintillation solution (same as above) was added and the radioactivity (same as above) was assayed.
(§1) The nonspecific binding was the binding in the presence of 10 μM naloxone and the difference between the total binding and nonspecific binding was taken as the specific binding. IC50 was calculated from inhibition of specific binding at each concentration of the compound, and Ki value of the test compound was calculated from this value and Kd value of [^3H]DAMGO.

ORL-1 receptor = molecular target: T2, ORL-1 receptor (Homo sapiens, UniProt P41146); test: ORL1 receptor binding assay ([3H]nociceptin); conditions: for Ki: calculated from IC50 and Kd of [3H]nociceptin; for IC50: membrane of human ORL-1 expression cells, [3H]nociceptin 0.5 nM
T2 construct: expressed in transfected cells
T2 sequence (P41146 whole entry): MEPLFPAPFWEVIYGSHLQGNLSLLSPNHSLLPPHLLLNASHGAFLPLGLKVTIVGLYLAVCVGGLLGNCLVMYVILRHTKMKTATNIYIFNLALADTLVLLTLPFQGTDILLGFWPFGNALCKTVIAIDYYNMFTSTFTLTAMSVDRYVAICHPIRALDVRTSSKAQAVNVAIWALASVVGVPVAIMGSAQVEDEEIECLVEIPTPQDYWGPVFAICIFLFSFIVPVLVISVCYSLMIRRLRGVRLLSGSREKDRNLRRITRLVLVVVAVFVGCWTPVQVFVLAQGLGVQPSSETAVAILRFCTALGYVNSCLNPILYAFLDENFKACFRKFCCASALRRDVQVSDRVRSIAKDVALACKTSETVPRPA
Description: ORL1 Receptor Binding Assay
A cell membrane suspension obtained from human ORL-1 expression cells was adjusted with Tris buffer [50 mM Tris, 2 mM EDTA, 0.1 mM (p-Amidinophenyl)methanesulfonyl Fluoride Hydrochloride (p-APMSF), 2 mg/ml BSA] to membrane protein amount of about 25 μg/ml (2.5 μg/well). This was mixed with [^3H]nociceptin (diluted with Tris buffer to a final concentration of 0.5 nM) and test compound (diluted with Tris buffer to a final concentration of 10 nM-10 μM), and the mixture was incubated at room temperature for 60 min. The membrane was recovered on a G/F-B filter (Packard, Unifilter 96GF/B) using a cell harvester and the reaction was stopped. After washing 3 times, the filter was dried at 42° C. for 1 hr. A scintillation solution (Packard, microscint-20) was added and the radioactivity (Packard, Top count A9912V) was assayed.
as §1, with “1” for “10”, “nociceptin” for “naloxone”, “[^3H]nociceptin.” for “[^3H]DAMGO.”

Mice = test: Hot-plate test; type: in vivo; conditions: Mus musculus, 1 h, oral, 60 min after administration, 55.5°C, read-out: Hot-plate M.E.D. (minimum effective dose)
Description: Mice (Crj, ICR, 4-week-old, male) were placed on a hot-plate (temperature 55.5±0.5° C.) and the time until the mice jumped and tried to run away was recorded. The mice were grouped according to the time and body weight so that the groups were evenly membered. The test compound was suspended in a 0.5% methylcellulose (MC) solution and orally administered to mice. After 60 min, the mice were again placed on a hot-plate and the time until they licked the hindlimb or jumped and tried to run away was recorded. The significant difference from the group administered with solvent was analyzed with ANOVA followed by Dunnett two-tailed test.

allodynia model = test: Allodynia test (intrathecal nociceptin, tactile stimulation); type: in vivo, Mice; conditions: Mus musculus, read-out: Allodynia M.E.D. (minimum effective dose)
Description: Mice (Crj, ICR, 4-week-old, male) were intrathecally administered with nociceptin (50 pg/5 μl) without anesthesia. For 20 min after administration and at 5 min intervals, an area from lateral region to tail of the mice was rubbed with a brush and the response of the mice was observed. The evaluation followed the criteria of 0; no change, 1; run or cry upon tactile stimulation, and 2; cry loud or dash away upon tactile stimulation. The test compound was suspended in a 0.5% MC solution and orally administered 60 min before nociceptin administration. The significant difference of the score of each administration group at 20 min after nociceptin administration from the group administered with solvent was analyzed with Mann-Whitny U-test.

[1] = mice, oral, 60 min before nociceptin 50 pg i.t., score at 20 min

Row | Ki (μ receptor) | IC50 (μ receptor) | Ki (ORL-1 receptor) | IC50 (ORL-1 receptor) | melting point | Compound | minimal effective dose (Mice) | minimal effective dose (allodynia model; [1]) | minimal effective dose (allodynia model; po)
1 | 497 nM | 1330 nM | 4 nM | 70 nM | 262 °C | Cc1cc(N)c2cc(NC(=O)c3ccccc3COc3ccc(Cl)cc3Cl)ccc2n1.Cl [Example 2, N-(4-amino-2-methyl-6-quinolyl)-2-[(2,4-dichlorophenoxy)methyl]benzamide hydrochloride] | 1 mg/kg | 0.3 mg/kg | 
2 | 505 nM | 1340 nM | 28 nM | 520 nM | 265 °C | Cc1cc(C)cc(OCc2ccccc2C(=O)Nc2ccc3nc(C)cc(N)c3c2)c1.Cl [Example 5, N-(4-amino-2-methyl-6-quinolyl)-2-[(3,5-dimethylphenoxy)methyl]benzamide hydrochloride] |  | 3 mg/kg | 
3 | 764 nM | 2030 nM | 16 nM | 320 nM |  | Cc1cccc(OCc2ccccc2C(=O)Nc2ccc3nc(C)cc(N)c3c2)c1 [Example 9, N-(4-amino-2-methyl-6-quinolyl)-2-[(3-methylphenoxy)methyl]benzamide] | < 3 mg/kg | 1 mg/kg | 
4 | 424 nM | 1120 nM | 3 nM | 60 nM | 245 °C | Cc1cc(N)c2cc(NC(=O)c3ccccc3COc3ccc(Cl)cc3)ccc2n1.Cl [Example 11, N-(4-amino-2-methyl-6-quinolyl)-2-[(4-chlorophenoxy)methyl]benzamide hydrochloride] | 3 mg/kg | 0.3 mg/kg | 
5 | 565 nM | 1440 nM | 5 nM | 90 nM | 252 °C | Cc1cc(N)c2cc(NC(=O)c3ccccc3COc3ccc(Br)cc3)ccc2n1.Cl [Example 33, N-(4-amino-2-methyl-6-quinolyl)-2-[(4-bromophenoxy)methyl]benzamide hydrochloride] |  | 0.3 mg/kg | 
6 | 745 nM | 1990 nM | 4 nM | 80 nM |  | Cc1cc(N)c2cc(NC(=O)c3ccccc3COc3ccc(Cl)c(C)c3)ccc2n1.Cl [Example 42, N-(4-amino-2-methyl-6-quinolyl)-2-[(4-chloro-3-methylphenoxy)methyl]benzamide hydrochloride] | 1 mg/kg | 0.3 mg/kg | 
7 | 785 nM | 2100 nM | 5 nM | 110 nM |  | Cc1ccc(OCc2ccccc2C(=O)Nc2ccc3nc(C)cc(N)c3c2)c(Cl)c1.Cl [Example 43, N-(4-amino-2-methyl-6-quinolyl)-2-[(2-chloro-4-methylphenoxy)methyl]benzamide hydrochloride] | 1 mg/kg | 0.3 mg/kg | 
8 |  |  | 7 nM | 120 nM | 233 °C | Cc1cc(N)c2cc(NC(=O)c3ccccc3COc3ccc4c(c3)CCO4)ccc2n1.Cl [Example 93] |  | > 0.3 mg/kg | 

More lines, now with the values behind:

Row | Compound | Ki (μ receptor) | IC50 (μ receptor) | Ki (ORL-1 receptor) | IC50 (ORL-1 receptor) | melting point | minimal effective dose (Mice) | minimal effective dose (allodynia model; [1]) | minimal effective dose (allodynia model; po)
9 | CCc1ccc(OCc2ccccc2C(=O)Nc2ccc3nc(C)cc(N)c3c2)cc1.Cl [Example 1, N-(4-amino-2-methyl-6-quinolyl)-2-[(4-ethylphenoxy)methyl]-benzamide hydrochloride] | 570 nM | 1520 nM | 7 nM | 120 nM |  | 1 mg/kg | 0.3 mg/kg | 
10 | Cc1cc(N)c2cc(NC(=O)c3ccccc3COc3ccccc3)ccc2n1.Cl [Example 3, N-(4-amino-2-methyl-6-quinolyl)-2-(phenoxymethyl)benzamide hydrochloride] | 417 nM | 1110 nM | 79 nM | 1470 nM |  | 30 mg/kg | 3 mg/kg | 
11 | COc1ccc(OCc2ccccc2C(=O)Nc2ccc3nc(C)cc(N)c3c2)cc1.Cl [Example 4, N-(4-amino-2-methyl-6-quinolyl)-2-[(4-methoxyphenoxy)methyl]benzamide hydrochloride] | 453 nM | 1260 nM |  |  | 276 °C | < 3 mg/kg |  | < 1 mg/kg
12 | Cc1cc(N)c2cc(NC(=O)c3ccccc3COc3ccc([N+](=O)[O-])cc3)ccc2n1 [Example 7, N-(4-amino-2-methyl-6-quinolyl)-2-[(4-nitrophenoxy)methyl]benzamide] | 346 nM | 960 nM |  |  | 148 °C | 3 mg/kg | 0.3 mg/kg | 
13 | COc1cccc(OCc2ccccc2C(=O)Nc2ccc3nc(C)cc(N)c3c2)c1OC.Cl [Example 8, N-(4-amino-2-methyl-6-quinolyl)-2-[(2,3-dimethoxyphenoxy)methyl]benzamide hydrochloride] | 183 nM | 490 nM | 50 nM | 940 nM | 196 °C |  | 3 mg/kg | 
14 | CC(=O)c1ccc(OCc2ccccc2C(=O)Nc2ccc3nc(C)cc(N)c3c2)cc1.Cl [Example 12, N-(4-amino-2-methyl-6-quinolyl)-2-[(4-acetylphenoxy)methyl]benzamide hydrochloride] | 254 nM | 670 nM | 8 nM | 160 nM | 270 °C | 3 mg/kg | 0.3 mg/kg | 
15 | Cc1cc(N)c2cc(NC(=O)c3ccccc3COc3ccc(C#N)cc3)ccc2n1.Cl [Example 16, N-(4-amino-2-methyl-6-quinolyl)-2-[(4-cyanophenoxy)methyl]benzamide hydrochloride] | 259 nM | 690 nM | 6 nM | 110 nM | 286 °C | 3 mg/kg | 0.1 mg/kg | 
16 | Cc1cc(N)c2cc(NC(=O)c3ccccc3COc3ccc(C(F)(F)F)cc3)ccc2n1.Cl [Example 18, N-(4-amino-2-methyl-6-quinolyl)-2-[(4-trifluoromethylphenoxy)methyl]benzamide hydrochloride] | 393 nM | 1040 nM | 4 nM | 90 nM | 220 °C |  | 0.3 mg/kg | 
17 | CCCc1ccc(OCc2ccccc2C(=O)Nc2ccc3nc(C)cc(N)c3c2)cc1.Cl [Example 34, N-(4-amino-2-methyl-6-quinolyl)-2-[(4-propylphenoxy)methyl]benzamide hydrochloride] | 888 nM | 2370 nM | 8 nM | 140 nM |  | 3 mg/kg | 0.3 mg/kg | 
18 | CCc1cc(N)c2cc(NC(=O)c3ccccc3COc3ccc(Cl)cc3)ccc2n1.Cl [Example 49] | 464 nM | 1260 nM | 2 nM | 40 nM |  | 1 mg/kg | 0.3 mg/kg | 
19 | Cc1cc(N)c2cc(NC(=O)c3ccccc3CCCCCOc3ccccc3)ccc2n1.Cl [Example 64] | 1380 nM | 3610 nM | 73 nM | 1390 nM | 253 °C |  | > 3 mg/kg | 
20 | CCc1ccc(OCc2ccccc2C(=O)Nc2ccc3nc(CC)cc(N)c3c2)c(Cl)c1 [Example 90] | 442 nM | 1180 nM | 5 nM | 110 nM |  | 3 mg/kg |  | 
